pIC50: −log10 of the molar value.
Biological target: Factor D (Homo sapiens (Human), UniProt P00746)
Assay: Factor D esterolytic assay
Assay type: biochemical
Details: Z-Lys-SBzl substrate, 100 mM HEPES, 500 mM NaCl, pH 7.5, 10% DMSO; tested a minimum of three times; read-out: Measured Ki (IC50) Value for Compounds: IC50
Summary of the method: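 Chromogenic thioesterase read-out: Z-Lys-SBzl (1.29 mM) hydrolysis by human Factor D, thiol detected with DTNB at 405 nm (690 nm background subtracted) for 600 s. Run in 100 mM HEPES, 500 mM NaCl, pH 7.5, 10% DMSO, substrate added immediately or after room-temperature preincubation. IC50 from percent inhibition versus enzyme alone, n≥3.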

Sequence of Factor D (P00746 26-253): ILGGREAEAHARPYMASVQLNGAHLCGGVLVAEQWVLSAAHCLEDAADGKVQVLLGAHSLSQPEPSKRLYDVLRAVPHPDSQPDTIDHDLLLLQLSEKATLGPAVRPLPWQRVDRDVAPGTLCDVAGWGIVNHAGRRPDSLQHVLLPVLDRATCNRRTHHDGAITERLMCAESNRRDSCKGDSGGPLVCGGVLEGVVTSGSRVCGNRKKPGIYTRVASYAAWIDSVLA

CNc1cc(-c2cccc(CN)c2)cc2c(COc3cc(OC)ccc3CC(=O)O)coc12 [Compound 280c, 2-(2-((5-(3-(aminomethyl)phenyl)-7-(methylamino)benzofuran-3-yl)methoxy)-4-methoxyphenyl)acetic acid]
pIC50: > 6.00

Cc1cccc(CC(=O)O)c1OCc1nn(C(C)C)c2ccc(-c3cccc(CN)c3)cc12 [Compound 306c, 2-(2-((5-(3-(aminomethyl)phenyl)-1-isopropyl-1H-indazol-3-yl)methoxy)-3-methylphenyl)acetic acid]
pIC50: > 6.00

COc1ccc(CC(=O)O)c(OCc2coc3c(NC(C)C)cc(-c4cccc(CN)c4)cc23)c1 [Compound 278c, 2-(2-((5-(3-(aminomethyl)phenyl)-7-(isopropylamino)benzofuran-3-yl)methoxy)-4-methoxyphenyl)acetic acid]
pIC50: > 6.00

NCc1cccc(-c2ccc3oc(CO)c(COc4ccccc4CC(=O)O)c3c2)c1 [Compound 112c, 2-(2-((5-(3-(aminomethyl)phenyl)-2-(hydroxymethyl)benzofuran-3-yl)methoxy)phenyl)acetic acid]
pIC50: > 6.00

NCc1cccc(-c2cc(N3CCOCC3)c3occ(COc4ccccc4CC(=O)O)c3c2)c1 [Compound 154c, 2-(2-((5-(3-(aminomethyl)phenyl)-7-morpholinobenzofuran-3-yl)methoxy)phenyl)acetic acid]
pIC50: > 6.00

COc1ccc(CC(=O)O)c(OCc2c(-c3ccc(F)cc3)oc3ccc(-c4cccc(CN)c4)cc23)c1 [Compound 168c, 2-(2-((5-(3-(aminomethyl)phenyl)-2-(4-fluorophenyl)benzofuran-3-yl)methoxy)-4-methoxyphenyl)acetic acid]
pIC50: > 6.00

NCc1cccc(-c2ccc3c(COc4ccccc4CC(=O)O)coc3c2)c1 [Compound 94d, 2-(2-((6-(3-(aminomethyl)phenyl)benzofuran-3-yl)methoxy)phenyl)acetic acid]
pIC50: < 5.00

NCc1cccc(-c2ccc3cccc(COc4ccccc4CC(=O)O)c3c2)c1 [Compound 100d, 2-(2-((7-(3-(aminomethyl)phenyl)naphthalen-1-yl)methoxy)phenyl)acetic acid]
pIC50: > 6.00

NCc1cccc(-c2cc(Oc3ccccc3)c3occ(COc4ccccc4CC(=O)O)c3c2)c1 [Compound 194f, 2-(2-((5-(3-(aminomethyl)phenyl)-7-phenoxybenzofuran-3-yl)methoxy)phenyl)acetic acid]
pIC50: > 6.00

Cc1ccc(OCc2coc3ccc(-c4cccc(CN)c4)cc23)c(CC(=O)O)c1 [Compound 105d, 2-(2-((5-(3-(aminomethyl)phenyl)benzofuran-3-yl)methoxy)-5-methylphenyl)acetic acid]
pIC50: > 6.00

Cc1cccc(-c2cc(-c3cccc(CN)c3)cc3c(COc4ccccc4CC(=O)O)coc23)c1 [Compound 197c, 2-(2-((5-(3-(aminomethyl)phenyl)-7-(m-tolyl)benzofuran-3-yl)methoxy)phenyl)acetic acid]
pIC50: > 6.00

Cn1cc(-c2cc(-c3cccc(CN)c3)cc3c(COc4ccccc4CC(=O)O)coc23)cn1 [Compound 72h, 2-(2-((5-(3-(aminomethyl)phenyl)-7-(1-methyl-1H-pyrazol-4-yl)benzofuran-3-yl)methoxy)phenyl)acetic acid]
pIC50: > 6.00

COc1cccc(CC(=O)O)c1OCc1coc2ccc(-c3cccc(CN)c3)cc12 [Compound 104e, 2-(2-((5-(3-(aminomethyl)phenyl)benzofuran-3-yl)methoxy)-3-methoxyphenyl)acetic acid]
pIC50: > 6.00

NCc1cccc(-c2ccc3oc(C(O)C(F)(F)F)c(COc4ccccc4CC(=O)O)c3c2)c1 (stereo not drawn) [Compound 140c, 2-(2-((5-(3-(aminomethyl)phenyl)-2-(2,2,2-trifluoro-1-hydroxyethyl)benzofuran-3-yl)methoxy)phenyl)acetic acid]
pIC50: > 6.00

NCc1cccc(-c2cc(NC[C@@H]3CCCO3)c3occ(COc4ccccc4CC(=O)O)c3c2)c1 [Compound 275d, (S)-2-(2-((5-(3-(aminomethyl)phenyl)-7-(((tetrahydrofuran-2-yl)methyl)amino)benzofuran-3-yl)methoxy)phenyl)acetic acid]
pIC50: > 6.00

N[C@H](CO)c1cccc(-c2ccc3occ(COc4ccccc4CC(=O)O)c3c2)c1 [Compound 51c, (S)-2-(2-((5-(3-(1-amino-2-hydroxyethyl)phenyl)benzofuran-3-yl)methoxy)phenyl)acetic acid]
pIC50: > 6.00

NCc1cccc(-c2ccc3c(c2)c(COc2ccccc2CC(=O)O)nn3C2CCCCC2)c1 [Compound 259c, 2-(2-((5-(3-(aminomethyl)phenyl)-1-cyclohexyl-1H-indazol-3-yl)methoxy)phenyl)acetic acid]
pIC50: > 6.00

NCc1cccc(-c2ccc3occ(Cc4ccccc4CC(=O)O)c3c2)c1 [Compound 73f, 2-(2-((5-(3-(aminomethyl)phenyl)benzofuran-3-yl)methyl)phenyl)acetic acid]
pIC50: 5.00 to 6.00

COCCc1oc2ccc(-c3cccc(CN)c3)cc2c1COc1cc(OC)ccc1CC(=O)O [Compound 238c, 2-(2-((5-(3-(aminomethyl)phenyl)-2-(2-methoxyethyl)benzofuran-3-yl)methoxy)-4-methoxyphenyl)acetic acid]
pIC50: > 6.00

Cc1ccccc1-c1cc(-c2cccc(CN)c2)cc2c(COc3ccccc3CC(=O)O)coc12 [Compound 223c, 2-(2-((5-(3-(aminomethyl)phenyl)-7-(o-tolyl)benzofuran-3-yl)methoxy)phenyl)acetic acid]
pIC50: > 6.00

CC(C)n1nc(COc2ccccc2CC(=O)O)c2cc(-c3cc(CN)cc(C4CC4)c3)ccc21 [Compound 331e, 2-(2-((5-(3-(aminomethyl)-5-cyclopropylphenyl)-1-isopropyl-1H-indazol-3-yl)methoxy)phenyl)acetic acid]
pIC50: 5.00 to 6.00

CC(C)n1nc(C(=O)Nc2ccccc2CC(=O)O)c2cc(-c3cccc(CN)c3)ccc21 [Compound 293c, 2-(2-(5-(3-(aminomethyl)phenyl)-1-isopropyl-1H-indazole-3-carboxamido)phenyl)acetic acid]
pIC50: > 6.00

NCc1cccc(-c2cc(-c3cccc(CN)c3)c3occ(COc4ccccc4CC(=O)O)c3c2)c1 [Compound 189c, 2-(2-((5,7-bis(3-(aminomethyl)phenyl)benzofuran-3-yl)methoxy)phenyl)acetic acid]
pIC50: > 6.00

NCc1cccc(-c2cc(-c3ccc(F)cc3)c3occ(COc4ccccc4CC(=O)O)c3c2)c1 [Compound 221c, 2-(2-((5-(3-(aminomethyl)phenyl)-7-(4-fluorophenyl)benzofuran-3-yl)methoxy)phenyl)acetic acid]
pIC50: > 6.00

NCc1cc(F)cc(-c2ccc3occ(Cc4cccc(CC(=O)O)c4O)c3c2)c1 [Compound 40d, 2-(3-((5-(3-(aminomethyl)-5-fluorophenyl)benzofuran-3-yl)methyl)-2-hydroxyphenyl)acetic acid]
pIC50: 5.00 to 6.00

NCc1cccc(-c2ccc3[nH]nc(C(=O)Nc4ccccc4CC(=O)O)c3c2)c1 [Compound 78e, 2-(2-(5-(3-(aminomethyl)phenyl)-1H-indazole-3-carboxamido)phenyl)acetic acid]
pIC50: > 6.00

COc1c(-c2ccc3c(c2)c(COc2ccccc2CC(=O)O)nn3C(C)C)ccnc1CN [Compound 326d, 2-(2-((5-(2-(aminomethyl)-3-methoxypyridin-4-yl)-1-isopropyl-1H-indazol-3-yl)methoxy)phenyl)acetic acid]
pIC50: 5.00 to 6.00

CC(C)(C)c1oc2ccc(-c3cccc(CN)c3)cc2c1COc1cc(F)ccc1CC(=O)O [Compound 173c, 2-(2-((5-(3-(aminomethyl)phenyl)-2-(tert-butyl)benzofuran-3-yl)methoxy)-4-fluorophenyl)acetic acid]
pIC50: > 6.00

NCc1cccc(-c2ccc3occ(COc4ccccc4CCC(=O)O)c3c2)c1 [Compound 2d, 3-(2-((5-(3-(aminomethyl)phenyl)benzofuran-3-yl)methoxy)phenyl)propanoic acid]
pIC50: 5.00 to 6.00

COc1ccc(CC(=O)O)c(OCc2coc3ccc(-c4cccc(CN)c4F)cc23)c1 [Compound 6e, 2-(2-((5-(3-(aminomethyl)-2-fluorophenyl)benzofuran-3-yl)methoxy)-4-methoxyphenyl)acetic acid]
pIC50: > 6.00

CC(C)n1nc(COc2cccc(C(=O)O)c2)c2cc(-c3cccc(CN)c3)ccc21 [Compound 303d, 3-((5-(3-(aminomethyl)phenyl)-1-isopropyl-1H-indazol-3-yl)methoxy)benzoic acid]
pIC50: < 5.00

NCc1cccc(-c2ccc3occ(COc4cccc(CC(=O)O)c4)c3c2)c1 [Compound 4d, 2-(3-((5-(3-(aminomethyl)phenyl)benzofuran-3-yl)methoxy)phenyl)acetic acid]
pIC50: 5.00 to 6.00

Cn1nc(COc2ccccc2CC(=O)O)c2cc(-c3cccc(CN)c3)ccc21 [Compound 117d, 2-(2-((5-(3-(aminomethyl)phenyl)-1-methyl-1H-indazol-3-yl)methoxy)phenyl)acetic acid]
pIC50: > 6.00

COc1ccc(CC(=O)O)c(OCc2c(C)oc3ccc(-c4cccc(CN)c4F)cc23)c1 [Compound 201b, 2-(2-((5-(3-(aminomethyl)-2-fluorophenyl)-2-methylbenzofuran-3-yl)methoxy)-4-methoxyphenyl)acetic acid]
pIC50: > 6.00

NCc1cccc(-c2ccc3sc(C(=O)O)c(COc4ccccc4CC(=O)O)c3c2)c1 [Compound 56d, 5-(3-(aminomethyl)phenyl)-3-((2-(carboxymethyl)phenoxy)methyl)benzo[b]thiophene-2-carboxylic acid]
pIC50: > 6.00

Cc1ccc(CC(=O)O)c(OCc2coc3c(OCC4CC4)cc(-c4cccc(CN)c4)cc23)c1 [Compound 161c, 2-(2-((5-(3-(aminomethyl)phenyl)-7-(cyclopropylmethoxy)benzofuran-3-yl)methoxy)-4-methylphenyl)acetic acid]
pIC50: > 6.00
